Values quoted from earlier work in patent publication US20080171790A1, “Fatty acids-systemic lipid solubilizers conjugates” (priority 2007, published 2008).

Settings: after oral administration

proportion of the administered substance excreted in the urine as a glucuronide: up to 84%
Compound: C[C@H](CCC(=O)O)[C@H]1CC[C@H]2[C@@H]3C[C@H](O)[C@@H]4C[C@H](O)CC[C@]4(C)[C@H]3CC[C@]12C [hyodeoxycholic acid, Hyodeoxycholic acid]
